According to paper PMC12040169 (PLOS Biology, 2025):

Test: in vitro
Conditions: human, hela cells, % viability

SMILES | viability at 28.5 h, 10 µM [%]
O=C(c1c[nH]c(=O)n(-c2ccc(F)cc2)c1=O)N1CCc2ccccc21 [CBK287554] | 101
COc1ccc(-n2c(=O)[nH]cc(C(=O)N3CCc4ccccc43)c2=O)cc1OC [CBK287555] | 105
Cc1nc2c(ccc3nc(NC(=O)c4ccccc4)sc32)s1 [CBK287560] | 91.7
O=C(Nc1nc(-c2ccncc2)cs1)c1sc2ccccc2c1Cl [CBK287562] | 92.1
COc1ccc(C(=O)Nc2nc(-c3nc4ccccc4s3)cs2)cc1 [CBK287563] | 102
O=C(Nc1nc(-c2cccnc2)cs1)c1cccc(N2C(=O)CCC2=O)c1 [CBK287564] | 108
CC1(C)CC(=O)c2sc(NC(=O)c3cccc(N4C(=O)CCC4=O)c3)nc2C1 [CBK287565] | 111
NC(=O)c1c(NC(=O)c2nc3ccccc3s2)sc2c1CCCCC2 [CBK287566] | 96.5
CSc1nc2ccc3nc(NC(C)=O)sc3c2s1 [CBK287567] | 106
CC(=O)Nc1ccccc1-c1nc2ccccc2o1 [CBK287568] | 100
O=C(Nc1nccs1)c1cc(=O)c2ccccc2o1 [CBK287570] | 105
COc1ccc2nc(NC(=O)c3ccc4c(c3)OCCO4)sc2c1 [CBK287572] | 103
Cc1cc(NC(=O)c2ccc(OC(C)C)cc2)no1 [CBK287575] | 94.4
Cc1cc(C)cc(NC(=O)CSc2ncccn2)c1 [CBK287577] | 97.8
COc1cc(C)ccc1S(=O)(=O)n1cnc2cc(C)c(C)cc21 [CBK287580] | 61.3
C=C(C)Cn1c(-c2ccc(N)cc2)nc2ccccc21 [CBK287581] | 89.2
N#Cc1c(NC(=O)c2cccnc2)sc2c1CCCCC2 [CBK287584] | 98.6
O=C(CC1Sc2ccccc2NC1=O)Nc1ccc(C(F)(F)F)cc1 (centres unmarked) [CBK287585] | 88.6
COc1ccc(C(=O)Nc2nc(-c3ccc4c(c3)OCCO4)cs2)cc1OC [CBK287588] | 92.5
COc1cccc(-c2nnc(NC(=O)c3ccc4c(c3)OCCO4)o2)c1 [CBK287591] | 108
CC(C)C(=O)Nc1nnc(-c2ccc(Cl)cc2)o1 [CBK287593] | 94
O=C(Nc1nnc(-c2ccccc2)o1)c1nc2ccccc2s1 [CBK287595] | 91.2
O=C(Nc1nnc(-c2ccccc2)o1)C1COc2ccccc2O1 (centres unmarked) [CBK287596] | 103

SMILES | viability at 28.5 h, 10 µM [%]
O=C(Cc1ccccc1)Nc1nnc(-c2ccccc2)o1 [CBK287597] | 95.4
O=C(Nc1nnc(-c2cccs2)o1)c1ccc(Cl)cc1 [CBK287600] | 96.4
Cc1ccc(Cn2ncc3c(N4CCCC4)ncnc32)cc1 [CBK287601] | 72.5
CC(=O)Nc1nc2ccc(S(=O)(=O)N3CCCC3)cc2s1 [CBK287604] | 98.8
CCn1c(=N)c(C(=O)NCCOC)cc2c(=O)n3ccccc3nc21 [CBK287605] | 89.5
CCCSc1nc2c(c(=O)[nH]1)C(c1ccncc1)C1=C(CCCC1=O)N2 (centres unmarked) [CBK287606] | 106
Cn1c(SCC(=O)NCCCN2CCOCC2)nc2ccccc2c1=O [CBK287607] | 109
Nc1ccc(C(=O)Nc2nc3ccccc3s2)cc1 [CBK287608] | 95.9
Cc1c(C(=O)O)sc2nc(SCC(=O)NCc3ccccc3)[nH]c(=O)c12 [CBK287609] | 94.2
Oc1c(C(c2ccccc2)N2CCc3ccccc3C2)sc2ncnn12 (centres unmarked) [CBK287612] | 99.9
CCSc1nc(N)c(NC(=O)c2ccco2)c(=O)[nH]1 [CBK287613] | 92.4
COc1ccc(C(=O)Nc2nc3c(OC)ccc(C)c3s2)cc1 [CBK287615] | 110
CCC(=O)Nc1nc2c(OC)ccc(C)c2s1 [CBK287616] | 110
CC(=O)Nc1nc2cc3c(cc2s1)OCCO3 [CBK287618] | 96.2
O=C(Nc1nc2c(Br)cccc2s1)c1nc2ccccc2s1 [CBK287619] | 92.2
Cc1cc(NC(=O)CN2CC(C)CC(C)C2)nc2c1c(=O)oc1ccccc12 (centres unmarked) [CBK287620] | 108
O=C(CSc1ccc2nnc(-c3cccnc3)n2n1)c1ccccc1 [CBK287624] | 100
c1ccc(CSc2ccc3nnc(-c4ccncc4)n3n2)cc1 [CBK287625] | 94.4
NC(=O)CSc1nnc(NC(=O)c2ccccc2Cl)s1 [CBK287629] | 89.9
Cc1ccc(S(=O)(=O)NCCc2cn3ccc(C)cc3n2)cc1 [CBK287630] | 103
Cc1cccc(-c2nc(C(N)=O)c3[nH]c(=O)n(-c4ccc(F)cc4)c3n2)c1 [CBK287632] | 111
CNC(=O)CSc1ncnc2c1cnn2-c1ccc(F)cc1 [CBK287633] | 94.4
COc1ccc(-c2ccc(SCC(=O)Nc3cc(C)on3)nn2)cc1 [CBK287634] | 88.7

SMILES | viability at 28.5 h, 10 µM [%]
O=C(CSc1ccc(-n2ccnc2)nn1)Nc1cccnc1 [CBK287635] | 97.6
COc1ccc(OC)c(NC(=O)CSc2ccc(-c3ccncc3)nn2)c1 [CBK287637] | 86.6
Cc1ccc2nc(N(CCCN(C)C)C(=O)c3ccco3)sc2c1 [CBK287639] | 114
CN(C)CCCN(C(=O)c1ccccc1)c1nc2ccc(F)cc2s1 [CBK287640] | 97.4
COc1ccc2sc(Nc3ccc(F)cc3)nc2c1 [CBK287641] | 95.3
COc1ccc(N2CC(NC(=O)Nc3ccccn3)CC2=O)cc1 (centres unmarked) [CBK287642] | 96.9
CCN1CCc2nc(NC(=O)c3ccc(Cl)cc3)sc2C1 [CBK287644] | 86.3
Cc1cc(N)n(-c2nc3c(cnn3-c3ccc(C)c(C)c3)c(=O)[nH]2)n1 [CBK287646] | 97.8
Cc1ccccc1-n1ncc2c(N3CCCC3)ncnc21 [CBK287648] | 99.2
COc1ccc(NC(=O)Cc2csc(NC(C)=O)n2)cc1 [CBK287650] | 93.3
Cc1ccc(-n2c(=O)[nH]c3c(C(=O)Nc4ccccc4)cn(C)c3c2=O)cc1 [CBK287651] | 93.9
COc1ccc(C(=O)c2oc3cc(NC(=O)c4cccnc4)ccc3c2C)cc1 [CBK287652] | 85.1
Cc1cc(O)nc(-n2nc(C)cc2NC(=O)c2ccccc2)n1 [CBK287653] | 101
Cc1cc(=O)[nH]c(-n2nc(C)cc2NC(=O)c2ccccc2C)n1 [CBK287654] | 92.5
CS(=O)(=O)N1CCC2(CC1)NC(=O)N(Cc1ccccc1)C2=O [CBK287656] | 100
COCC(=O)Nc1ccc2c(c1)NC(=O)C(C)(C)CO2 [CBK287658] | 89
COc1cccc2cc(C(=O)Nc3cccc(C)n3)oc12 [CBK287659] | 94.5
Cc1ccc(OCC(=O)Nc2ccc3c(c2)C(=O)Nc2ccccc2O3)cc1 [CBK287660] | 88.2
Cn1c(SCC(=O)c2ccc(F)cc2)ncc(C(=O)Nc2ccccc2)c1=O [CBK287672] | 111
Cc1ccc(NC(=O)c2cnc(SCc3ccccn3)n(C)c2=O)cc1 [CBK287673] | 92.9
Cc1ccc(NC(=O)CSc2nc3[nH]ncc3c(=O)[nH]2)cc1 [CBK287675] | 93.5
O=C(CSc1nnc2ccc(-c3ccccc3)nn12)Nc1ccc(F)cc1 [CBK287676] | 91.5
O=C(CSc1nnc2ccc(-c3ccccc3)nn12)NCc1ccccc1 [CBK287677] | 67.6

SMILES | viability at 28.5 h, 10 µM [%]
c1ccc(CSc2nnc3ccc(-c4ccncc4)nn23)cc1 [CBK287681] | 86.5
Cc1ccc(C(=O)Nc2cccc(-c3ccc4nnc(C)n4n3)c2)cc1 [CBK287683] | 82.8
CCCc1cc(=O)[nH]c2nnc(SCC(=O)NC)n12 [CBK287685] | 95.3
Cc1c(C)n2c(SCC(=O)N3CCCC3)nnc2[nH]c1=O [CBK287686] | 99.4
CNC(=O)CSc1nnc2[nH]c(=O)c(C)c(C)n12 [CBK287687] | 108
Cc1ccccc1-n1ncc2c(=O)n(CC(=O)N3CCCCC3)cnc21 [CBK287688] | 108
Cc1ccccc1-n1ncc2c(=O)n(CC(=O)Nc3ccccc3)cnc21 [CBK287689] | 98.4
CC(=O)Cn1cnc2c(cnn2-c2cccc(Cl)c2)c1=O [CBK287692] | 84.4
Cc1cccc(-n2ncc3c(=O)n(CC(=O)Nc4ccccc4)cnc32)c1C [CBK287693] | 95.1
COc1cc(-c2nnc(NC(C)=O)o2)cc(OC)c1OC [CBK287698] | 95.2
COc1cc2nc(NC(=O)c3ccccc3)sc2cc1OC [CBK287701] | 82.3
O=c1[nH]cc(S(=O)(=O)Nc2ccccc2)c(=O)[nH]1 [CBK287703] | 93.5
CCn1c2c(c(=O)[nH]c1=O)C(c1ccccc1)C1=C(COC1=O)N2 (centres unmarked) [CBK287704] | 95.6
Cc1ccc(S(=O)(=O)CC(=O)Nc2nc3ccc(C)cc3s2)cc1 [CBK287705] | 89.8
Cc1ccc(S(=O)(=O)CCC(=O)Nc2ccc3sc(C)nc3c2)cc1 [CBK287706] | 99.3
COc1ccccc1CNC(=O)c1cnc2sc(C)cn2c1=O [CBK287708] | 104
COc1ccc(CCNC(=O)c2cnc3sc(C)cn3c2=O)cc1OC [CBK287709] | 104
Cc1cn2c(=O)c(C(=O)Nc3ccccc3C)cnc2s1 [CBK287710] | 94.1
Cc1cn2c(=O)c(C(=O)Nc3ccc(F)c(C(F)(F)F)c3)cnc2s1 [CBK287713] | 77.9
COc1ccc(C)cc1NC(=O)c1cnc2sc(C)cn2c1=O [CBK287714] | 105
CC(=O)Nc1cccc(NC(=O)c2cnc3sc(C)cn3c2=O)c1 [CBK287715] | 92
Cc1ccc(-n2c(=O)[nH]c3c(C(N)=O)nc(-c4ccccc4)nc32)cc1C [CBK287718] | 84.7
Cc1cc(SCc2ccc(Cl)cc2)nc(=O)[nH]1 [CBK287719] | 90.8
